# Measured values reported in US20030065039A1, “Biologically active 1,3-bis-aromatic-prop-2-en-1-ones, 1,3-bis-aromatic-propan-1-ones, and 1,3-bis-aromatic-prop-2-yn-1-ones” (Statens Serum Institute, priority 1997, published 2003).
# Key:
# [1] = test system: Leishmania promastigotes; assay: Leishmania promastigotes Assay; format: cell-based; details: Leishmania; promastigotes, 3H-thymidine uptake; read-out: Leishmania IC50 ± SD
# Summary of the method: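 L. major (WHO Iran vaccine strain) and L. donovani MHOM/KE/85/NLB 274 promastigotes (3×10^6/ml, day 3 and 6 cultures) exposed to compound 2 h at 26 °C, then 3H-thymidine 18 h; incorporation counted by scintillation. Microscopic counts and flagellar motility also assessed.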
# [2] = test system: human lymphocytes; assay: Lymphocyte Proliferation Assay; format: cell-based; details: Lymphocyte; PHA provoked proliferation of human lymphocytes; read-out: Lymphocytes IC50 ± SD
# Summary of the method: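 Ficoll-isolated human blood mononuclear cells (0.63×10^5/ml) in RPMI 1640 with 5% FCS were cultured in triplicate with test compound and PHA or PPD for 3 or 7 days. Proliferation measured by ^3H-thymidine incorporation over the final 24 h; triplicate median recorded.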
# [3] = test system: Plasmodium falciparum; assay: Plasmodium falciparum Assay; format: cell-based; details: Plasmodium falciparum; 3-H-hypoxanthine incorporation, 48 hours; read-out: Plasmodium IC50 ± SD
# Summary of the method: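 Parasitized erythrocytes (~1% parasitemia, 5×10^8/ml) cultured 48 h in RPMI with test compound, with 3H-hypoxanthine added for the last 24 h. Growth inhibition read as 3H-hypoxanthine incorporation into parasite DNA by liquid scintillation; uninfected and untreated infected cultures run in parallel.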
# [4] = target: T1, Helicobacter pylori fumarate reductase (Helicobacter pylori, UniProt O06913); format: biochemical; details: at concentration of 0.2 mM
# T1 construct: Membrane associated proteins were solubilized from the pellet in 150 mM KCl, pH 7.0; endogenous in cells; host or cells: Helicobacter pylori 007 strain; KCl-solubilised fraction (or sonicate supernatant)
# T1 sequence (O06913 1-714): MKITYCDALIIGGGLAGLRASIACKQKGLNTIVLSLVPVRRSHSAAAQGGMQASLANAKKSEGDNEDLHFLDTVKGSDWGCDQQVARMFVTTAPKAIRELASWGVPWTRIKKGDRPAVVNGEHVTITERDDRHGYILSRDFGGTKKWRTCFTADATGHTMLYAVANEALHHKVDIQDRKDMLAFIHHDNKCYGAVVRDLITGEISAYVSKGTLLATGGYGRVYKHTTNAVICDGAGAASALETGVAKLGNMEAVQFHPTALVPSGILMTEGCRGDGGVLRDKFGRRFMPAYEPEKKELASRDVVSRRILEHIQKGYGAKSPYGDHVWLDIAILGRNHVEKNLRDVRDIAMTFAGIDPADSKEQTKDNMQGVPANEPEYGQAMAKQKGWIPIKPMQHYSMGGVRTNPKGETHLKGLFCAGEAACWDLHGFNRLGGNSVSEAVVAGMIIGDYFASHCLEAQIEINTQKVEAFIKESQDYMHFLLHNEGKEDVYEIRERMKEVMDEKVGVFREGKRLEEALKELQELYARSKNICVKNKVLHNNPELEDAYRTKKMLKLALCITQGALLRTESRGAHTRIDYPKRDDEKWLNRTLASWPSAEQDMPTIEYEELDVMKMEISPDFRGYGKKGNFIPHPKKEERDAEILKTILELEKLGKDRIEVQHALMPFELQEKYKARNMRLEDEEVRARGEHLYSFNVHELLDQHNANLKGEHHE
# T1 sequence (O06914 1-245 partner): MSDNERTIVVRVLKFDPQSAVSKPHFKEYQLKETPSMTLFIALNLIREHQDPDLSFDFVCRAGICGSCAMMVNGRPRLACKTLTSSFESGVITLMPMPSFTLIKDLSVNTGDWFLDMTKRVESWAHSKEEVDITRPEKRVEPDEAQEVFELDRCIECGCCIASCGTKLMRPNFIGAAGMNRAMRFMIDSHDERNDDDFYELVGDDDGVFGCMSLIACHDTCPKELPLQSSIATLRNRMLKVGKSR
# T1 sequence (O06912 1-255 partner): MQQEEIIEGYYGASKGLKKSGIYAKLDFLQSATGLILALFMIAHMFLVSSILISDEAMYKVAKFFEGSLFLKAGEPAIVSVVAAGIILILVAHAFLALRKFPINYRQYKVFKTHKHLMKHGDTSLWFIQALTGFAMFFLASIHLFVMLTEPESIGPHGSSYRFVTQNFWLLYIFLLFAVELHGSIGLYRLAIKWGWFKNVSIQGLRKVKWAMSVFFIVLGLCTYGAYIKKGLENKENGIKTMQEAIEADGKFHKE
# Procedure: 1) Extraction of soluble FRD: Bacteria were harvested by centrifugation at 18,000 g for 10 min at 4° C., and were washed 2 times in an isotonic phosphate saline buffer (50 mM sodium phosphate, pH 7.2, 90 mM NaCl, 5 mM Kcl). Bacteria were lysed in 5 mM Tris-HCl, pH 7.4, for 15 minutes, and centrifuged 18,000 g for 10 minutes. Membrane associated proteins were solubilized from the pellet in 150 mM KCl, pH 7.0, in ice bath for 60 min, and then the supernatant was collected after centrifugation (18,000 g for 10 minutes) for the measurement of FRD activity.
# 2) Extraction of FRD by sonication: Bacteria were harvested by centrifugation at 18,000 g for 10 min at 4° C., were sonicated, and then the supernatant was collected after centrifugation (18,000 g for 10 minutes) for the measurement of FRD activity.
# NADH-FRD activity was determined as the rate of NADH-oxidation upon addition of 1 mM fumarate in the KCl-solubilized fraction or sonicated fraction. The reaction was monitored spectrophotometrically at 340 nm (∈=6.2 mM^−1 cm^−1) using 100 μM NADH and usually 3 mg protein in both reference and sample cuvettes. The measurement was carried out in a Shimadzu UV-190 double-beam spectrophotometer. Protein concentrations were determined using a Bio-Rad protein assay (Bio-Rad Laboratories, 200 Alfred Nobel Dr. Hercules, Calif. 94547, USA).
# KCl solubilised fraction of bacteria was incubated with different concentrations of various oxygenated chalcones at 28° C. and the remaining FRD activity was measured. The IC50 values were determined as the concentration at which 50% of the activity was inhibited.
# [5] = test system: Helicobacter pylori; assay: Helicobacter species Assay (agar plate, MIC); format: cell-based
# Procedure: (§1) 20 strains of Helicobacter pylori were used in an agar plate assay. The compounds were incorporated in the agar plates at different concentrations as described in the examples and were then inoculated with different strains of Helicobacter pylori followed by incubation in a microaerophilic atmosphere at 37° C. for 72 hours. The number of colony-forming units (CFU) were counted after the incubation period. The MIC values were determined as the minimal concentration required to inhibit growth of the bacteria.
# (§2) Stock solutions were made at a concentration of 1 mg/ml by dissolving 1 mg of each compound in 100 μl DMSO (dimethylsulfoxide) followed by addition of 900 μl of heat-inactivated fetal claf serum (HFCS). These stock solutions were diluted with HFCS to make solutions having the following concentrations: 320 μg/ml, 160 μg/ml, 80 μg/ml, 40 μg/ml and 20 μg/ml. Dilution rows were made with 3 ml aliquots in vials containing the compounds in the following final test concentrations: 16 μg/ml, 8 μg/ml, 4 μg/ml, 2 μg/ml and 1 μg/ml. As control was used DMSO-HFCS containing an amount of DMSO equal to the amount of test compound in the solution with 320 μg/ml compound.
# as §1, with “Bacteria: 20” for “20”, “concentrations” for “concentrations as described in the examples”, “and then they” for “and”, “were” for “were then”, “incubation at” for “incubation in a”, “C. in” for “C. for”
# as §2, with “concentrations: 2560 μg/ml, 1280 μg/ml, 640 μg/ml,” for “concentrations:”, “160 µg/ml and” for “160 μg/ml,”, “80” for “80 μg/ml, 40 μg/ml and 20”, “concentrations: 128 μg/ml, 64 μg/ml, 32 μg/ml, 12” for “concentrations: 16”, “8” for “8 μg/ml, 4 μg/ml, 2”, “and 4” for “and 1”
# Bacteria: 20 strains of Helicobacter pylori were used in an agar plate assay. The same method as described above under Experiment A was employed and MIC values were determined.
IC50 [1] [µM],IC50 [3] [µM],melting point [°C],"MIC ([5]; Helicobacter pylori, 20 strains of H. pylori, agar plate, 72 hours, read-out: MIC) [µg/mL]",Compound,IC50 [2] [µM],activity of NADH-fumarate reductase [4],"strains of Helicobacter pylori inhibited ([5]; at a concentration of 16 μg/ml, 20 strains)",No. strains inhibited/No. strains tested ([5]; at the MIC of the same line)
3.4 ± 0.5,7.4,98.4 to 98.9,–,"COc1cc(/C=C/C(=O)c2ccccc2[N+](=O)[O-])cc(OC)c1 [2′-NO2-3,5-OCH3, 3,5-dimethoxy-2′-nitrochalcone]",3.7 ± 0.2,–,–,–
7.3 ± 1,13,159.8 to 160.5,–,"COc1cc(/C=C/C(=O)c2ccccc2N(C)C)cc(OC)c1 [2′-N(CH3)2-3,5-OCH3, 3,5-dimethoxy-2′-dimethylaminochalcone]",5.7 ± 0.3,–,–,–
–,–,–,–,"O=C(CC(=O)C(F)(F)F)c1cccs1 [2-thenoyltrifluoroacetone, reference compound]",–,almost completely inhibited,–,–
3.7 ± 0.6,28,126.2 to 126.8,–,"COc1cc(/C=C/C(=O)c2cccc(O)c2)cc(OC)c1 [3′-OH-3,5-OCH3, 3,5-dimethoxy-3′-hydroxychalcone]",3.2 ± 0.4,–,–,–
17 ± 2,5.5,130.1 to 130.7,–,"COc1ccc(C(=O)/C=C/c2cccc([N+](=O)[O-])c2)c(OC)c1OC [3-NO2-2′,3′,4′-OCH3, 3-nitro-2′,3′,4′-trimethoxychalcone]",36 ± 2,–,–,–
8.6 ± 0.9,7.6,131.7 to 133,–,"COc1ccc(C(=O)/C=C/c2ccc(C#N)cc2)c(OC)c1OC [4-CN-2′,3′,4′-OCH3, 4-cyano-2′,3′,4′-trimethoxychalcone]",5.4 ± 0.3,–,–,–
5.8 ± 0.7,29,81.8 to 82.6,–,"COc1cc(/C=C/C(=O)c2cccc(N(C)C)c2)cc(OC)c1 [3′-N(CH3)2-3,5-OCH3, 3,5-dimethoxy-3′-dimethylaminochalcone]",5 ± 0.2,–,–,–
3.8 ± 0.9,20,110.2 to 110.9,–,"COc1cc(/C=C/C(=O)c2ccccc2O)cc(OC)c1 [2′-OH-3,5-OCH3, 3,5-dimethoxy-2′-hydroxychalcone]",8.1 ± 0.8,–,–,–
5.9 ± 0.4,9.3,107.1 to 108,16,"COc1ccc(C(=O)/C=C/c2ccccc2[N+](=O)[O-])c(OC)c1OC [PH98, 2-nitro-2′,3′,4′-trimethoxychalcone]",7 ± 0.6,–,4 out of 20,6/20
20 ± 3,12,87.2 to 87.9,–,"COc1ccc(C(=O)/C=C/c2cccc(N(C)C)c2)c(OC)c1OC [3-N(CH3)2-2′,3′,4′-OCH3, 3-dimethylamino-2′,3′,4′-trimethoxychalcone]",26 ± 1,–,–,–
9.3 ± 1,10,122.6 to 123,–,"COc1ccc(C(=O)/C=C/c2ccccc2O)c(OC)c1OC [2-OH-2′,3′,4′,-OCH3, 2-hydroxy-2′,3′,4′-trimethoxychalcone]",9 ± 0.7,–,–,–

Compound,IC50 [1] [µM],IC50 [3] [µM],melting point [°C],"MIC ([5]; Helicobacter pylori, 20 strains of H. pylori, agar plate, 72 hours, read-out: MIC) [µg/mL]",IC50 [2] [µM],activity of NADH-fumarate reductase [4],"strains of Helicobacter pylori inhibited ([5]; at a concentration of 16 μg/ml, 20 strains)",No. strains inhibited/No. strains tested ([5]; at the MIC of the same line)
"CCCCOc1ccccc1C(=O)/C=C/c1cc(OC)cc(OC)c1 [2′-OC4H9-3,5-OCH3, 3,5-dimethoxy-2′-butoxychalcone]",7.2 ± 1.2,25,69.5 to 70.1,–,13 ± 1,–,–,–
"CCCCOc1ccccc1/C=C/C(=O)c1ccc(OC)c(OC)c1OC [2-OC4H9-2′,3′,4′-OCH3, 2-butoxy-2′,3′,4′-trimethoxychalcone]",26 ± 1,7.8,129.4 to 130.2,–,52 ± 3,–,–,–
